Test results: PubChem BioAssay (NCI)
Values joined by “and” are separate entries in the source; they are usually repeats but may differ in a detail not shown here. Identical values can stand only once.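 How tested: cells in 96-well plates exposed to compound for 48 hours at five concentrations. GI50: concentration for 50% inhibition of growth. TGI: concentration producing complete growth inhibition.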

Key:
Assay in all cases: NCI tumour cell line growth inhibition, 48 h
[1] = test system: MOLT-4 leukemia
[2] = test system: NCI-H226 lung
[3] = test system: SK-MEL-2 melanoma
[4] = test system: CAKI-1 renal
[5] = test system: A498 renal
[6] = test system: CCRF-CEM leukemia
[7] = test system: LOX IMVI melanoma
[8] = test system: 786-0 renal
[9] = test system: MALME-3M melanoma
[10] = test system: NCI-H460 lung

Structure (SMILES)	TGI [1]	TGI [2]	TGI [3]	TGI [4]	TGI [5]	TGI [6]	TGI [7]	TGI [8]	TGI [9]	TGI [10]	GI50 [1]	GI50 [2]	GI50 [3]	GI50 [4]	GI50 [5]	GI50 [7]	GI50 [8]	GI50 [9]	GI50 [10]	GI50 [6]
CCOC(=O)C12CCCC1(O)N(NC(=O)c1ccccc1)C(C)=C2C(=O)OC (stereo unspecified)	> 100 µM	> 100 µM	> 100 µM	> 100 µM	> 100 µM	> 100 µM	> 100 µM	> 100 µM	> 100 µM	> 100 µM										
Nc1nc(N)c(N=O)c(Nc2ccc(O)cc2)n1	> 60.9 µM	96 µM	> 100 µM	> 76.3 µM	> 85.1 µM	> 100 µM	> 100 µM	> 95.5 µM	> 100 µM	> 100 µM										
CCC(C)(C)C(=O)O[C@H]1C[C@@H](C)C=C2C=C[C@H](C)[C@H](CC[C@@H]3C[C@@H](O)CC(=O)O3)[C@H]21	31.7 µM and > 30 µM	9.27 µM	5.92 µM and 1.81 µM	3.73 µM and 8.56 µM		30.2 µM and > 30 µM	6.43 µM	11.2 µM and > 30 µM	30.5 µM	14.1 µM and > 30 µM	14.6 µM	2.32 µM	0.765 µM	0.941 µM	0.156 µM	0.39 µM	3.13 µM	13.9 µM	3.91 µM	
O=C1NN(c2ccc(C(=O)O)cc2)C(=O)/C1=C\c1ccc([N+](=O)[O-])o1	> 100 µM	> 100 µM	> 100 µM	31.1 µM	> 100 µM	61.8 µM	31.2 µM	> 100 µM	41.2 µM	> 100 µM	33.4 µM	> 100 µM	83.1 µM	16.1 µM	> 100 µM	11.1 µM	> 100 µM	20.7 µM	> 100 µM	22.7 µM
Oc1ccc2cc(Br)ccc2c1-c1c(O)ccc2cc(Br)ccc12	11 µM	8.9 µM	13.5 µM	8.77 µM	10.3 µM	12 µM	3.41 µM	4.64 µM	6.05 µM	15 µM	2.83 µM	2.66 µM	3.82 µM	2.27 µM	2.95 µM	1.81 µM	2.38 µM	2.19 µM	3.76 µM	3.31 µM
COc1cc(/C=C2/C(=O)N(C(=O)OC(C)C)C(Cc3cc(OC)c(OC)c(C)c3OC)C(=O)N2Cc2ccccc2)c(OC)c(C)c1OC (stereo unspecified)	44.1 µM	30 µM	> 100 µM	> 100 µM	> 100 µM	> 100 µM	> 100 µM	> 100 µM	> 100 µM	> 100 µM										
COc1ccccc1OCC(=O)Nc1sc2c(c1C(N)=O)CCC2	> 100 µM	> 100 µM	68 µM	> 100 µM	> 100 µM	> 100 µM	> 100 µM	> 100 µM	> 100 µM	> 100 µM	> 100 µM	44.3 µM		> 100 µM	> 100 µM	> 100 µM	> 100 µM	> 100 µM	> 100 µM	> 100 µM
O=C(O)/C=C/n1c2ccccc2c(=O)c2ccccc21	> 100 µM	> 100 µM	> 100 µM	> 100 µM	> 100 µM	> 100 µM	> 100 µM	> 100 µM	> 100 µM	> 100 µM										
COc1cc2c3c(n(CCCCOC(=O)C(F)(F)F)c(=O)c2cc1OC)-c1cc2c(cc1C3=O)OCO2	> 77.3 µM	> 100 µM	> 100 µM	> 100 µM	> 100 µM	> 100 µM	> 100 µM	7.65 µM	> 100 µM	> 100 µM	10.1 µM	98.6 µM	> 100 µM	> 21.8 µM	> 44.4 µM	> 100 µM	0.982 µM	> 100 µM		5.01 µM
CC1=CC(=NC(=O)CBr)C=C/C1=N\S(=O)(=O)c1ccccc1	9.65 µM	40.2 µM	16 µM	11.4 µM	28.2 µM	8.16 µM	3.24 µM	10.8 µM	5.89 µM	34 µM	2.75 µM	15.1 µM	4.04 µM	3.11 µM	14.3 µM	1.68 µM	3.37 µM	2.06 µM	15.1 µM	2.45 µM
CCC[CH2][Sn]1([CH2]CCC)[O]C(=O)c2cc(I)cc(I)c2[O]1	1.76 µM	3.29 µM	1.94 µM	2.15 µM	2.67 µM	0.79 µM	2.39 µM	2.8 µM	2.23 µM	2.76 µM	0.344 µM	1.75 µM	0.491 µM	0.637 µM	1.37 µM	0.8 µM	1.47 µM	1 µM	1.45 µM	0.22 µM
COc1cc2nc3sc(C(=O)Nc4ccc(C(=O)OC(C)C)cc4)c(C(=O)Nc4ccc(Cl)cc4C)n3c(=O)c2cc1OC	18.9 µM	43.4 µM	> 100 µM	> 100 µM	26.3 µM	30.2 µM	34.4 µM	28 µM	2.44 µM	> 100 µM	2.87 µM	16.6 µM	> 100 µM	26.1 µM	4.69 µM	11.1 µM	5.17 µM	0.0691 µM	3.05 µM	4.66 µM
C[n+]1c(/C=C\c2ccc(Cl)cc2)ccc2ccccc21	> 100 µM	> 100 µM	50.3 µM	> 100 µM	91.3 µM	> 100 µM	> 100 µM	> 100 µM	36.8 µM	> 100 µM	> 100 µM	72.1 µM	21 µM	66.6 µM	4.02 µM	37.4 µM	> 100 µM	11.9 µM	32.7 µM	32.4 µM
CCOC12OC3=C(CC1CC1=C(CCC1=O)O2)C(=O)CC3 (stereo unspecified)	> 100 µM	> 100 µM	> 100 µM	> 100 µM	> 100 µM	> 100 µM	> 100 µM	> 100 µM	> 100 µM	> 100 µM										
